Measurements published in the RepoRT retention time repository.

Assay: Waters ACQUITY UPLC BEH C18, 100 × 2.1 mm, 1.7 µm, 40 °C, 0.3 to 0.4 mL/min, estimated dead time 0.63 min; A: water + 0.1% formic acid; B: methanol + 0.1% formic acid; gradient (min/%B) 0/0.5 0.1/0.5 10/80 10.1/99.5 12/99.5
Conditions: stereoisomer not certain

| Structure (SMILES) | LC retention time [min] |
| --- | --- |
| CC1(C)CC(=O)C2(C)CCC3(C)C(=CCC4C5(C)CCC(OC6OC(C(=O)O)C(O)C(O)C6OC6OC(CO)C(O)C(O)C6OC6OC(CO)C(O)C(O)C6O)C(C)(CO)C5CCC43C)C2C1 (stereo unspecified) | 7.49 |
| O=S(=O)(O)ON=C(Cc1ccc(O)cc1)SC1OC(CO)C(O)C(O)C1O (stereo unspecified) | 2 |
| CC1OC(OC2C(OC3C(OC4CCC5(C)C(CCC6(C)C5CC=C5C7CC(C)(C)CC(O)C7(C)CCC56C)C4(C)CO)OC(C(=O)O)C(O)C3O)OC(CO)C(O)C2O)C(O)C(O)C1O (stereo unspecified) | 7.09 |
| COc1cccc(-c2oc3cc(OC)ccc3c(=O)c2O)c1 | 6.75 |
| CC(C)CC1NC(=O)C2CCCN2C1=O (stereo unspecified) | 4.03 |
| CC(C)=CCCC(C)(OC1OC(COC2OCC(O)C(O)C2O)C(O)C(O)C1O)C1CCC2(C)C1C(O)CC1C3(C)CCC(OC4OC(CO)C(O)C(O)C4OC4OC(CO)C(O)C(O)C4O)C(C)(C)C3CCC12C (stereo unspecified) | 6.14 |
| CCCCCCCCCCCCCCCC(=O)OCC(O)COP(=O)(O)OCCN (stereo unspecified) | 10 |
| O=c1cc2oc(-c3ccc(O)cc3)ccc-2c(O)c1 | 3.87 |
| C=CC1C(OC2OC(CO)C(O)C(O)C2O)OC=C2C(=O)N3Cc4c([nH]c5ccccc5c4=O)C3CC21 (stereo unspecified) | 4.07 |
| CCCCCCCCC=CCCCCCCCC(=O)OCC(O)COP(=O)([O-])OCC[NH3+] (stereo unspecified) | 10.2 |
| COc1cc(C=CC=O)cc(OC)c1O | 4.73 |
| O=C(O)CCSCCC(=O)O | 2.06 |
| O=c1cc(-c2ccc(O)cc2)oc2cc(OC3OC(CO)C(O)C(O)C3OC3OCC(O)(CO)C3O)cc(O)c12 (stereo unspecified) | 4.71 |
| CC1C2CCC3C4CC=C5CC(N(C)C)CCC5(C)C4CCC32CN1C (stereo unspecified) | 3.35 |
| CC(=O)OC1CC(COC2OC(CO)C(O)C(O)C2OC2OC(CO)C(O)C(O)C2O)CNC12OC1CC3C4CCC5CC(OC6OC(CO)C(OC7OC(CO)C(OC8OCC(O)C(O)C8O)C(O)C7OC7OC(CO)C(O)C(O)C7O)C(O)C6O)CCC5(C)C4CCC3(C)C1C2C (stereo unspecified) | 3.84 |
| CC=C1CN2CCC34C(=C(C=O)C1CC23)Nc1c(O)cccc14 (stereo unspecified) | 3.38 |
| COC(=O)C1=COC(C)C2CN3CCc4c([nH]c5ccccc45)C3CC12 (stereo unspecified) | 4.87 |
| COc1cc(C=CC(=O)NCCCCC(N)C(=O)O)ccc1O (stereo unspecified) | 3.08 |
| O=C1CC(c2ccc(OC3OC(CO)C(O)C(O)C3O)cc2)Oc2cc(O)ccc21 (stereo unspecified) | 4.08 |
| O=C(O)CC(=O)NC(Cc1c[nH]c2ccccc12)C(=O)O (stereo unspecified) | 4.35 |
| CC=CSSC=CC | 6.41 |

| Structure (SMILES) | LC retention time [min] |
| --- | --- |
| CC(C)CC(N)C(=O)NCC(=O)O (stereo unspecified) | 2.08 |
| COc1ccc(-c2coc3cc(OC4OC(CO)C(O)C(O)C4O)c(OC)cc3c2=O)cc1 (stereo unspecified) | 5.05 |
| COc1ccc(C2CC(=O)c3c(O)cc(O)cc3O2)cc1O (stereo unspecified) | 6.04 |
| COC(=O)C1CC23CCCN4CCC5(c6ccccc6NC15C2C)C43 (stereo unspecified) | 4.24 |
| COc1ccc(C(=O)OC2CC3CCC(C2)N3C)cc1OC (stereo unspecified) | 3.95 |
| Cc1[nH]ccc2c1[nH]c1cc(=O)ccc12 | 3.18 |
| CC1OC(OC2C(OC3CCC4(C)C(CCC5(C)C4CC=C4C6CC(C)(C)CCC6(C(=O)O)CCC45C)C3(C)CO)OCC(O)C2O)C(O)C(O)C1O (stereo unspecified) | 7.96 |
| COc1cc(C=CC(=O)O)cc(OC)c1 | 6.26 |
| CS(=O)CCCCN=C=S (stereo unspecified) | 3.69 |
| CS(=O)CCCCCCCC#N (stereo unspecified) | 4.16 |
| COc1cc(O)c(CC=C(C)C)c(O)c1C(=O)C=Cc1ccc(O)cc1 | 9.06 |
| COc1cc(C=CC(=O)OC2C(OC3C(Oc4cc(O)c5c(=O)cc(-c6ccc(O)c(OC)c6)oc5c4)OC(C(=O)O)C(O)C3O)OC(C(=O)O)C(O)C2O)ccc1O (stereo unspecified) | 4.68 |
| CC(CCC1(O)OC2CC3C4CC=C5CC(O)CCC5(C)C4CCC3(C)C2C1C)COC1OC(CO)C(O)C(O)C1O (stereo unspecified) | 6.58 |
| NC(CCC(=O)NC(CS)C(=O)NCC(=O)O)C(=O)O (stereo unspecified) | 1.52 |
| CC(C)=CCc1cc(C=CC(=O)c2ccc(O)cc2O)ccc1O | 8.61 |
| O=c1cc(-c2ccc(O)c(O)c2)oc2cc(O)c(C3OC(CO)C(O)C(O)C3O)c(O)c12 (stereo unspecified) | 3.59 |
| COc1c(C=CC(=O)c2ccc(O)c(O)c2)ccc(O)c1CC=C(C)C | 7.49 |
| COc1ccc(C=CC(=O)c2c(O)cc(OC3OC(CO)C(O)C(O)C3OC3OC(C)C(O)C(O)C3O)cc2O)cc1 (stereo unspecified) | 5.42 |
| CCC=CCC1C(=O)C=CC1CCCCCCCC(=O)O (stereo unspecified) | 9.37 |
| Cc1c(N)c(=O)n(-c2ccccc2)n1C | 2.76 |
| C=C1CC23CC4C5C6(C)CC(OC(C)=O)CC57C2C(O)C1C(O)C3(O)C7N4C6 (stereo unspecified) | 3.03 |

| Structure (SMILES) | LC retention time [min] |
| --- | --- |
| CCCCCCCCC=CCCCCCCCC(=O)OCC(O)COP(=O)(O)OCCN (stereo unspecified) | 10.2 |
| CCC(C)C(=O)OC1C(O)C2C(CN3CC(C)CCC3C2(C)O)C2CC34OC5(O)C(OC(=O)C(C)(O)C(C)O)CCC3(C)C5CC(O)C4C21O (stereo unspecified) | 4.65 |
| COc1ccccc1C=CC(=O)O | 6.12 |
| COC(=O)C1=COC(C)C2CN3CCC4(C(=O)Nc5c4ccc(OC)c5OC)C3CC12 (stereo unspecified) | 4.48 |
| O=C(C=Cc1ccc(O)cc1)NCCCCNCCCNC(=O)C=Cc1ccc(O)cc1 | 3.83 |
| CC1OC(OC2C(COC3OC(CO)C(O)C(O)C3O)OC(OC3CCC4(C)C(CCC5(C)C4C=CC4=C6CC(C)(C)CCC6(CO)C(O)CC45C)C3(C)C)C(O)C2O)C(O)C(O)C1O (stereo unspecified) | 6.29 |
| COc1cc(-c2oc3cc(O)cc(O)c3c(=O)c2OC2OC(CO)C(O)C(O)C2O)ccc1OC1OC(CO)C(O)C(O)C1O (stereo unspecified) | 3.23 |
| O=C1C(=Cc2ccc(O)c(O)c2)Oc2c1ccc(OC1OC(CO)C(O)C(O)C1O)c2O (stereo unspecified) | 4 |
| COc1ccc2c(c1)[nH]c1c(C)nccc12 | 4.11 |
| CCCCC(=O)OC1C(CO)OC(OC2(CO)OC(CO)C(OC(C)=O)C2O)C(OC(=O)CCCC)C1OC(=O)CCCC (stereo unspecified) | 8.56 |
| CC=C1CN(C)C2CC3(C(=O)N(OC)c4ccccc43)C3CC1C2CO3 (stereo unspecified) | 4.63 |
| CCC1CN2CCc3c([nH]c4cccc(OC)c34)C2CC1C(=COC)C(=O)OC (stereo unspecified) | 5.54 |
| COc1ccc(C=Cc2cc(OC)cc(OC)c2)cc1 | 9.6 |
| CC1CCC2(C(=O)OC3OC(COC4OC(CO)C(OC5OC(C)C(O)C(O)C5O)C(O)C4O)C(O)C(O)C3O)CCC3(C)C(=CCC4C5(C)CC(O)C(O)C(C)(CO)C5C(O)CC43C)C2C1C (stereo unspecified) | 4.88 |
| CC1OC(OC2C(OC3C(OC4CCC5(C)C(CCC6(C)C5CC=C5C7CC(C)(C)CC(=O)C7(C)CCC56C)C4(C)CO)OC(C(=O)O)C(O)C3O)OC(CO)C(O)C2O)C(O)C(O)C1O (stereo unspecified) | 7.62 |
| CS(=O)CCCCCCCN (stereo unspecified) | 2.08 |
| CC(C)CC(NC(=O)C(C)N)C(=O)O (stereo unspecified) | 2.36 |
| CC1OC(OC2C(OC3C(OC4CCC5(C)C(CCC6(C)C5CC=C5C7CC(C)(C)CC(O)C7(C)CCC56C)C4(C)CO)OC(C(=O)O)C(O)C3O)OCC(O)C2O)C(O)C(O)C1O (stereo unspecified) | 7.28 |
| CC1CCC2(NC1)OC1CC3C4CCC5CC(OC6OC(CO)C(OC7OC(CO)C(O)C(OC8OCC(O)C(O)C8O)C7OC7OC(CO)C(O)C(O)C7O)C(O)C6O)CCC5(C)C4CCC3(C)C1C2C (stereo unspecified) | 4.81 |
